Experimental data as given in ChEMBL document CHEMBL1201862, “PubChem BioAssay data set” (2004).
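Test compounds were applied to cells in 96-well plates for 48 hours at 5 doses. The concentration for 50% growth inhibition is given as GI50.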 Activity calls are given as the source filed them. Rule as the data show it: active = GI50 up to about 1.1 µM and inactive = higher.

Columns and labels:
Assay in all cases: DTP human tumour cell line panel, 48 h
HCT-15 = test system: HCT-15
SK-MEL-28 = test system: SK-MEL-28
EKVX = test system: EKVX
NCI/ADR-RES = test system: NCI/ADR-RES
RPMI-8226 = test system: RPMI-8226
SK-MEL-5 = test system: SK-MEL-5
UACC-257 = test system: UACC-257
A549 = test system: A549
IGROV-1 = test system: IGROV-1
LOX IMVI = test system: LOX IMVI
MDA-MB-231 = test system: MDA-MB-231
NCI-H522 = test system: NCI-H522
ACHN = test system: ACHN
TK-10 = test system: TK-10
MCF7 = test system: MCF7
SNB-19 = test system: SNB-19
OVCAR-5 = test system: OVCAR-5
COLO 205 = test system: COLO 205
CAKI-1 = test system: CAKI-1
CCRF-CEM = test system: CCRF-CEM
U-251 = test system: U-251
SF-539 = test system: SF-539
Hs-578T = test system: Hs-578T
MDA-MB-435 = test system: MDA-MB-435
BT-549 = test system: BT-549
M14 = test system: M14
KM12 = test system: KM12
DU-145 = test system: DU-145
RXF 393 = test system: RXF 393
SNB-75 = test system: SNB-75
SK-OV-3 = test system: SK-OV-3
MOLT-4 = test system: MOLT-4
NCI-H460 = test system: NCI-H460
HCC 2998 = test system: HCC 2998
SF-268 = test system: SF-268
Malme-3M = test system: Malme-3M
T47D = test system: T47D
UO-31 = test system: UO-31
OVCAR-3 = test system: OVCAR-3
OVCAR-8 = test system: OVCAR-8
MDA-N = test system: MDA-N
786-0 = test system: 786-0
SN12C = test system: SN12C
SF-295 = test system: SF-295
NCI-H23 = test system: NCI-H23
SK-MEL-2 = test system: SK-MEL-2
OVCAR-4 = test system: OVCAR-4
UACC-62 = test system: UACC-62
A498 = test system: A498
HOP-62 = test system: HOP-62
HCT-116 = test system: HCT-116
PC-3 = test system: PC-3
HT-29 = test system: HT-29
SW-620 = test system: SW-620
HOP-92 = test system: HOP-92
K562 = test system: K562
SR = test system: SR
NCI-H226 = test system: NCI-H226
HL-60 = test system: HL-60

Q: For Cc1nc2ccc(S(=O)(=O)NS(=O)(=O)c3ccc(-c4ccccc4)cc3)cc2c(=O)n1NS(=O)(=O)c1ccc(-c2ccccc2)cc1, which GI50 (HCT-15) is on record?
A: Its GI50 is greater than 100 µM.

Q: And the GI50 (SK-MEL-28)?
A: Its GI50 is > 100 µM (inactive).

Q: What about the GI50 (EKVX) of the same compound?
A: The GI50 was 68.2 µM (inactive).

Q: And the GI50 (NCI/ADR-RES)?
A: Its GI50 is > 100 µM (inactive).

Q: And the GI50 (RPMI-8226)?
A: Its GI50 is > 100 µM (inactive).

Q: And the GI50 (SK-MEL-5)?
A: The GI50 was > 100 µM (inactive).

Q: What about the GI50 (UACC-257) of the same compound?
A: The GI50 was > 100 µM (inactive).

Q: And the GI50 (A549)?
A: Its GI50 is > 100 µM (inactive).

Q: What about the GI50 (IGROV-1) of the same compound?
A: The GI50 was 38.3 µM (inactive).

Q: And the GI50 (LOX IMVI)?
A: The GI50 was > 100 µM (inactive).

Q: And the GI50 (MDA-MB-231)?
A: Its GI50 is > 100 µM (inactive).

Q: And the GI50 (NCI-H522)?
A: The GI50 was > 100 µM (inactive).

Q: And the GI50 (ACHN)?
A: Its GI50 is > 100 µM (inactive).

Q: What about the GI50 (TK-10) of the same compound?
A: The GI50 was > 100 µM (inactive).

Q: What about the GI50 (MCF7) of the same compound?
A: Its GI50 is > 100 µM (inactive).

Q: And the GI50 (SNB-19)?
A: Its GI50 is > 100 µM (inactive).

Q: What about the GI50 (OVCAR-5) of the same compound?
A: The GI50 was > 100 µM (inactive).

Q: And the GI50 (COLO 205)?
A: The GI50 was > 100 µM (inactive).

Q: What about the GI50 (CAKI-1) of the same compound?
A: The GI50 was > 100 µM (inactive).

Q: And the GI50 (CCRF-CEM)?
A: Its GI50 is > 100 µM (inactive).

Q: What about the GI50 (U-251) of the same compound?
A: Its GI50 is > 100 µM (inactive).

Q: What about the GI50 (SF-539) of the same compound?
A: The GI50 was > 100 µM (inactive).

Q: What about the GI50 (Hs-578T) of the same compound?
A: The GI50 was > 100 µM (inactive).

Q: And the GI50 (MDA-MB-435)?
A: Its GI50 is > 100 µM (inactive).

Q: And the GI50 (BT-549)?
A: Its GI50 is > 100 µM (inactive).

Q: What about the GI50 (M14) of the same compound?
A: The GI50 was > 100 µM (inactive).

Q: What about the GI50 (KM12) of the same compound?
A: The GI50 was > 100 µM (inactive).

Q: What about the GI50 (DU-145) of the same compound?
A: Its GI50 is > 100 µM (inactive).

Q: What about the GI50 (RXF 393) of the same compound?
A: Its GI50 is > 100 µM (inactive).

Q: What about the GI50 (SNB-75) of the same compound?
A: Its GI50 is > 100 µM (inactive).

Q: What about the GI50 (SK-OV-3) of the same compound?
A: The GI50 was > 100 µM (inactive).

Q: What about the GI50 (MOLT-4) of the same compound?
A: The GI50 was > 100 µM (inactive).

Q: And the GI50 (NCI-H460)?
A: The GI50 was > 100 µM (inactive).

Q: What about the GI50 (HCC 2998) of the same compound?
A: Its GI50 is > 100 µM (inactive).

Q: What about the GI50 (SF-268) of the same compound?
A: The GI50 was > 100 µM (inactive).

Q: And the GI50 (Malme-3M)?
A: Its GI50 is > 100 µM (inactive).

Q: What about the GI50 (T47D) of the same compound?
A: Its GI50 is > 100 µM (inactive).

Q: And the GI50 (UO-31)?
A: The GI50 was > 100 µM (inactive).

Q: What about the GI50 (OVCAR-3) of the same compound?
A: Its GI50 is > 100 µM (inactive).

Q: And the GI50 (OVCAR-8)?
A: Its GI50 is 77.4 µM (inactive).

Q: What about the GI50 (MDA-N) of the same compound?
A: Its GI50 is > 100 µM (inactive).

Q: What about the GI50 (786-0) of the same compound?
A: Its GI50 is > 100 µM (inactive).

Q: What about the GI50 (SN12C) of the same compound?
A: The GI50 was > 100 µM (inactive).

Q: What about the GI50 (SF-295) of the same compound?
A: Its GI50 is > 100 µM (inactive).

Q: What about the GI50 (NCI-H23) of the same compound?
A: Its GI50 is > 100 µM (inactive).

Q: And the GI50 (SK-MEL-2)?
A: The GI50 was > 100 µM (inactive).

Q: What about the GI50 (OVCAR-4) of the same compound?
A: The GI50 was 60 µM (inactive).

Q: And the GI50 (UACC-62)?
A: The GI50 was > 100 µM (inactive).

Q: And the GI50 (A498)?
A: Its GI50 is 0.753 µM (active).

Q: What about the GI50 (HOP-62) of the same compound?
A: Its GI50 is > 100 µM (inactive).

Q: What about the GI50 (HCT-116) of the same compound?
A: Its GI50 is > 100 µM (inactive).

Q: And the GI50 (PC-3)?
A: The GI50 was > 100 µM (inactive).

Q: What about the GI50 (HT-29) of the same compound?
A: The GI50 was > 100 µM (inactive).

Q: What about the GI50 (SW-620) of the same compound?
A: The GI50 was > 100 µM (inactive).

Q: What about the GI50 (HOP-92) of the same compound?
A: The GI50 was 23.4 µM (inactive).

Q: And the GI50 (K562)?
A: Its GI50 is > 100 µM (inactive).

Q: And the GI50 (SR)?
A: The GI50 was > 100 µM (inactive).

Q: What about the GI50 (NCI-H226) of the same compound?
A: Its GI50 is > 100 µM (inactive).

Q: And the GI50 (HL-60)?
A: Its GI50 is > 100 µM (inactive).

Q: Which results are given for O=C1/C(=c2\c3ccccc3n3c(=O)c4ccccc4nc23)Nc2ccccc21 [CANDIDINE]?
A: GI50 (HCT-15): > 100 µM; GI50 (SK-MEL-28): > 100 µM (inactive); GI50 (EKVX): > 88.9 µM (inactive); GI50 (NCI/ADR-RES): > 100 µM (inactive); GI50 (RPMI-8226): > 100 µM (inactive); GI50 (SK-MEL-5): > 53.8 µM (inactive); GI50 (UACC-257): > 86.7 µM (inactive); GI50 (A549): > 84.5 µM (inactive); GI50 (IGROV-1): > 100 µM (inactive); GI50 (LOX IMVI): > 72.8 µM (inactive); GI50 (MDA-MB-231): > 70.3 µM (inactive); GI50 (NCI-H522): > 100 µM (inactive); GI50 (ACHN): > 100 µM (inactive); GI50 (TK-10): > 100 µM (inactive); GI50 (MCF7): > 70.1 µM (inactive); GI50 (SNB-19): > 100 µM (inactive); GI50 (OVCAR-5): > 100 µM (inactive); GI50 (COLO 205): 58.5 µM (inactive); GI50 (CAKI-1): > 100 µM (inactive); GI50 (CCRF-CEM): > 100 µM (inactive); GI50 (U-251): > 93.8 µM (inactive); GI50 (SF-539): > 63 µM (inactive); GI50 (Hs-578T): 29.9 µM (inactive); GI50 (MDA-MB-435): 18.5 µM (inactive); GI50 (BT-549): > 100 µM (inactive); GI50 (M14): > 38.7 µM (inactive); GI50 (KM12): > 59.7 µM (inactive); GI50 (DU-145): > 100 µM (inactive); GI50 (RXF 393): > 100 µM (inactive); GI50 (SNB-75): 25.6 µM (inactive); GI50 (SK-OV-3): > 100 µM (inactive); GI50 (MOLT-4): > 31.6 µM (inactive); GI50 (NCI-H460): 43.5 µM (inactive); GI50 (HCC 2998): > 82.4 µM (inactive); GI50 (SF-268): 85.3 µM (inactive); GI50 (Malme-3M): 33 µM (inactive); GI50 (T47D): > 26.7 µM (inactive); GI50 (UO-31): > 21.5 µM (inactive); GI50 (OVCAR-3): 45.9 µM (inactive); GI50 (OVCAR-8): > 91.8 µM (inactive); GI50 (MDA-N): 18.6 µM (inactive); GI50 (786-0): 58.7 µM (inactive); GI50 (SN12C): > 100 µM (inactive); GI50 (SF-295): > 78.3 µM (inactive); GI50 (NCI-H23): > 64.9 µM (inactive); GI50 (SK-MEL-2): > 100 µM (inactive); GI50 (OVCAR-4): > 100 µM (inactive); GI50 (UACC-62): 43.9 µM (inactive); GI50 (A498): > 100 µM (inactive); GI50 (HOP-62): > 70.5 µM (inactive); GI50 (HCT-116): > 100 µM (inactive); GI50 (PC-3): > 100 µM (inactive); GI50 (HT-29): 26.6 µM (inactive); GI50 (SW-620): > 100 µM (inactive); GI50 (HOP-92): > 75.7 µM (inactive); GI50 (K562): > 84.5 µM (inactive); GI50 (SR): > 89.5 µM (inactive); GI50 (NCI-H226): > 100 µM (inactive); GI50 (HL-60): > 10 µM (inactive)
